The results in this text go back to US6589963B2, “Heterocyclic compounds and salts thereof and medicinal use of the same” (Kyoto Pharmaceutical Industries, Ltd., priority 1999, dated 2003).

For one test, the system named is 3T3-L1 cells. In words: Triglyceride accumulation promoting action in 3T3-L1 cells. It counts as cell-based. To be noted: 10^−7 M test compound with 10 ng/ml insulin, 4 days; relative to control. The procedure:
A culture medium of 80% confluent 3T3-L1 cells was removed and the cells were dissociated with 0.25% trypsin-EDTA solution. 5% FBS-DMEM (the same amount as the removed medium) was added and the obtained cell suspension was centrifuged at 25° C., 100×g for 1 min to give cell sediment and the supernatant was removed. The cells were re-suspended in a suitable amount of 5% FBS-DMEM medium and the cells were counted. 5% FBS-DMEM medium was added to adjust the concentration to 1×10^5 cells/ml and the mixture was dispensed by 1 ml to a 24 well plate. The cells were cultured with aeration of 5% CO2 at 37° C. for 2 days. Upon confirmation of a post-confluent state, the culture supernatant was changed to a medium containing 0.5 mM-IBMX, and the cells were cultured for 2 days. Then, the medium was changed to a medium containing 10 ng/ml insulin and 10^−7 M test compound and the cells were cultured further for 4 days. After removing the culture supernatant, the cells were lysed in a 0.1% SDS solution and the triglyceride amount was measured. The triglyceride accumulation (%) due to the potentiation of insulin activity by the test compound was calculated from the following formula.
[(triglyceride amount with addition of test compound−triglyceride amount of control)/triglyceride amount of control]×100

For test [1], the system named is male KK-A^y mice. In words: Hypoglycemic action (method A). To be noted: 4 consecutive days, non-fasting, about 24 hours after final administration, vs control group. It is filed as in vivo, mouse. As to the method: (§1) The glucose level in the plasma was measured using a commercially available assay kit (glucose CII-test WAKO, Wako Pure Chemical Industries, Ltd.). The mice were grouped (5 mice per group) into a control group and an administration group, such that the mean and the standard deviation of the glucose level in the plasma of each group were nearly the same. Each test compound was suspended or dissolved in 5% gum arabic solution and administered orally to the administration group for 4 consecutive days from the next day. The 5% gum arabic solution was orally administered to the control group. Blood was drawn from the tail vein under a non-fasting state about 24 hours after the final administration and the glucose level in the plasma was measured. The decrease in the plasma glucose level was calculated from the following formula.
(§2) Decrease (%) in plasma glucose level=[(mean plasma glucose level of control group−mean plasma glucose level of test compound administration group)/mean plasma glucose level of control group]×100

For test [2], the system named is male KK-A^y mice. In words: Hypoglycemic action and hypoinsulinemic action in insulin resistant diabetic mouse. It counts as in vivo. To be noted: 10 mg/kg orally once a day for 4 days, 24 hours after final administration, non-fasting; for Plasma glucose: control 507; for Insulin: plasma, control 43. The procedure:
Blood was drawn from the tail vein of 12-week-old male KK-A^y mice under a non-fasting state, and the glucose level in the plasma was measured using a commercially available assay kit (glucose CII-test WAKO, Wako Pure Chemical Industries, Ltd.). The mice were grouped (5 mice per group) into a control group and an administration group, such that the mean glucose level in the plasma and the average body weight of each group, as well as the standard deviation thereof were nearly the same. The test compound (10 mg/kg) was suspended in 5% aqueous gum arabic solution and orally administered once a day to the administration group for 4 days from the next day. The 5% aqueous gum arabic solution was orally administered to the control group. Blood was drawn from the tail vein under a non-fasting state 24 hours after the final administration. The concentrations of plasma glucose and plasma insulin were measured.

The test system of test [3] is male KK-A^y mice. Description: Hypotriglyceridemic action. It counts as in vivo, mouse. To be noted: 4 consecutive days, non-fasting, about 24 hours after final administration, vs control group. The procedure: as §1, with “triglyceride” for “glucose”, “(triglyceride G-test” for “(glucose CII-test”
Decrease (%) in plasma triglyceride level=[(mean plasma triglyceride level of control group−mean plasma triglyceride level of test compound administration group)/mean plasma triglyceride level of control group]×100

The subject of test [4] is male KK-A^y mice. In words: Hypoglycemic action (method B). It counts as in vivo, mouse. The conditions noted are these: 0.1 w/w % in powder feed for 4 days, blood at day 5, non-fasting, vs control group. As to the method: The glucose level in the plasma was measured using a commercially available assay kit (glucose CII-test WAKO, Wako Pure Chemical Industries, Ltd.). The mice were grouped (5 mice per group) into a control group and an administration group, such that the mean and the standard deviation of the glucose level in the plasma of each group were nearly the same. Each test compound was admixed in a proportion of 0.1 w/w % with a powder feed (CE-2, Clea) and the feed mixture was fed to the administration group for 4 days from the next day. A regular powder feed was fed to the control group. At day 5, blood was drawn from the tail vein under a non-fasting state and the glucose level in the plasma was measured. The decrease in the plasma glucose level was calculated from the following formula.
as §2

Turning to `C=CCCN1Cc2cc(OCCc3nc(-c4ccccc4)oc3C)ccc2C[C@H]1C(=O)O` [Example 42, 2-(3-Butenyl)-7-[2-(5-methyl-2-phenyloxazol-4-yl)ethoxy]-1,2,3,4-tetrahydroisoquinoline-(3S)-carboxylic acid], in the test on 3T3-L1 cells, the “Triglyceride accumulation (%)” value stood at 193.6%. The “Decrease (%) in plasma glucose level” value is reported as 27.6% in the test on male KK-A^y mice [1] (dose 10 mg/kg orally) and 49.6% with male KK-A^y mice [1] (dose 30 mg/kg orally). For the same molecule, the Plasma glucose in the test on male KK-A^y mice [2] stood at 308 mg/dL. Besides, the Insulin with male KK-A^y mice [2] stood at 27 ng/mL. The “Decrease (%) in plasma triglyceride level” value in the test on male KK-A^y mice [3] (dose 30 mg/kg orally) is 31.6%.
For `Cc1oc(C(C)(C)C)nc1CCOc1ccc2c(c1)CN(Cc1ccccc1)[C@H](C(=O)O)C2` [Example 32, 2-Benzyl-7-[2-(5-methyl-2-tert-butyloxazol-4-yl)ethoxy]-1,2,3,4-tetrahydroisoquinoline-(3S)-carboxylic acid], in the test with 3T3-L1 cells, the “Triglyceride accumulation (%)” value is on record as 181.2%. Moreover, the “Decrease (%) in plasma glucose level” value in the test on male KK-A^y mice [1] (dose 30 mg/kg orally) worked out at 36.4%. In the test with male KK-A^y mice [2], this molecule gave a Plasma glucose of 402 mg/dL and an Insulin of 30 ng/mL. In the test with male KK-A^y mice [3] (dose 30 mg/kg orally), the “Decrease (%) in plasma triglyceride level” value stood at 32.5%.
For `CCCCCC(=O)N1Cc2cc(OCCc3nc(-c4ccccc4)oc3C)ccc2C[C@H]1C(=O)O` [Example 5, 2-Hexanoyl-7-[2-(5-methyl-2-phenyloxazol-4-yl)ethoxy]-1,2,3,4-tetrahydroisoquinoline-(3S)-carboxylic acid], the “Triglyceride accumulation (%)” value in the test on 3T3-L1 cells was 233.0%. Besides, the results for the “Decrease (%) in plasma glucose level” value with male KK-A^y mice [1] (dose 10 mg/kg orally) and in the test with male KK-A^y mice [1] (dose 30 mg/kg orally) were 34.1% and 43.4%, respectively. Besides, the “Decrease (%) in plasma triglyceride level” value in the test with male KK-A^y mice [3] (dose 30 mg/kg orally) is on record as 30.9%.
In the case of `C=CCCc1nc(CCOc2ccc3c(c2)CN(Cc2ccccc2)[C@H](C(=O)O)C3)c(C)o1` [Example 37], in the test with 3T3-L1 cells, the “Triglyceride accumulation (%)” value came to 277.3%. In the test with male KK-A^y mice [1] (dose 30 mg/kg orally), the “Decrease (%) in plasma glucose level” value is recorded as 11.1%.
For `C#CCN1Cc2cc(OCCc3nc(-c4ccccc4)oc3C)ccc2C[C@H]1C(=O)O` [Example 39, 7-[2-(5-Methyl-2-phenyloxazol-4-yl)ethoxy]-2-(2-propynyl)-1,2,3,4-tetrahydroisoquinoline-(3S)-carboxylic acid], the “Triglyceride accumulation (%)” value in the test with 3T3-L1 cells came out at 258.0%. In addition, the “Decrease (%) in plasma glucose level” value in the test on male KK-A^y mice [1] (dose 30 mg/kg orally) is listed as 30.7%. In addition, the “Decrease (%) in plasma triglyceride level” value with male KK-A^y mice [3] (dose 30 mg/kg orally) stood at 15.6%.
With `CC=CCN1Cc2cc(OCCc3nc(-c4ccccc4)oc3C)ccc2C[C@H]1C(=O)O` [Example 40], the “Triglyceride accumulation (%)” value with 3T3-L1 cells was determined as 231.0%. Moreover, in the test with male KK-A^y mice [1] (dose 30 mg/kg orally), the “Decrease (%) in plasma glucose level” value was determined as 46.3%. In the test on male KK-A^y mice [3] (dose 30 mg/kg orally), the “Decrease (%) in plasma triglyceride level” value is 36.1%.
Consider `Cc1oc(-c2ccccc2)nc1CCOc1ccc2c(c1)CN(C(=O)c1ccccc1)[C@H](C(=O)O)C2` [Example 10, 2-Benzoyl-7-[2-(5-methyl-2-phenyloxazol-4-yl)ethoxy]-1,2,3,4-tetrahydroisoquinoline-(3S)-carboxylic acid], for which the “Decrease (%) in plasma glucose level” value with male KK-A^y mice [4] is reported as 42.4%.
For the molecule `Cc1oc(-c2ccccc2)nc1CCOc1ccc2c(c1)CN(CC1CCCCC1)[C@H](C(=O)O)C2` [Example 8, 2-Cyclohexylmethyl-7-[2-(5-methyl-2-phenyloxazol-4-yl)ethoxy]-1,2,3,4-tetrahydroisoquinoline-(3S)-carboxylic acid], the “Triglyceride accumulation (%)” value with 3T3-L1 cells turned out to be 275.5%.
Regarding `Cc1oc(-c2cccs2)nc1CCOc1ccc2c(c1)CN(Cc1ccccc1)[C@H](C(=O)O)C2` [Example 33, 2-Benzyl-7-[2-(5-methyl-2-(thiophen-2-yl)oxazol-4-yl)ethoxy]-1,2,3,4-tetrahydroisoquinoline-(3S)-carboxylic acid], the “Triglyceride accumulation (%)” value in the test with 3T3-L1 cells is 222.5%. The “Decrease (%) in plasma glucose level” value with male KK-A^y mice [1] (dose 30 mg/kg orally) amounted to 38.8%. Besides, the “Decrease (%) in plasma triglyceride level” value in the test with male KK-A^y mice [3] (dose 30 mg/kg orally) is listed as 42.0%.
Taken in the same sequence, the figures for `COc1ccc(CN2Cc3cc(OCCc4nc(-c5ccccc5)oc4C)ccc3C[C@H]2C(=O)O)cc1` [Example 16, 2-(4-Methoxybenzyl)-7-[2-(5-methyl-2-phenyloxazol-4-yl)ethoxy]-1,2,3,4-tetrahydroisoquinoline-(3S)-carboxylic acid] were 288.9%, 34.5% and 19.8%.
Taken in the same sequence, the figures for `Cc1oc(-c2ccccc2)nc1CCOc1ccc2c(c1)CN(Cc1ccc(F)cc1)[C@H](C(=O)O)C2` [Example 21, 2-(4-Fluorobenzyl)-7-[2-(5-methyl-2-phenyloxazol-4-yl)ethoxy]-1,2,3,4-tetrahydroisoquinoline-(3S)-carboxylic acid] were 284.9%, 43.4% and 24.4%.
`Cc1oc(-c2ccccc2)nc1CCOc1ccc2c(c1)CN(CC(C)(C)C)[C@H](C(=O)O)C2` [Example 23, 2-(2,2-Dimethylpropyl)-7-[2-(5-methyl-2-phenyloxazol-4-yl)ethoxy]-1,2,3,4-tetrahydroisoquinoline-(3S.)-carboxylic acid]: in the test with 3T3-L1 cells, the “Triglyceride accumulation (%)” value is 214.2%. In addition, the “Decrease (%) in plasma glucose level” value in the test on male KK-A^y mice [1] (dose 10 mg/kg orally) was found to be 24.3%; in the test with male KK-A^y mice [1] (dose 30 mg/kg orally) it was 42.9%. Also, the Plasma glucose in the test on male KK-A^y mice [2] is 382 mg/dL. The same molecule showed an Insulin with male KK-A^y mice [2] of 28 ng/mL. The entries for the “Decrease (%) in plasma triglyceride level” value in the test with male KK-A^y mice [3] (dose 10 mg/kg orally) and in the test on male KK-A^y mice [3] (dose 30 mg/kg orally) were 30.4% and 50.4%, respectively.
For the molecule `CC(C)(CCOc1ccc2c(c1)CN(Cc1ccccc1)[C@H](C(=O)O)C2)Cc1ccccc1` [Example 50, 2-Benzyl-7-(3,3-dimethyl-4-phenylbutoxy)-1,2,3,4-tetrahydroisoquinoline-(3S)-carboxylic acid], in the test with male KK-A^y mice [1] (dose 30 mg/kg orally), the “Decrease (%) in plasma glucose level” value turned out to be 11.4%. The “Decrease (%) in plasma triglyceride level” value in the test with male KK-A^y mice [3] (dose 30 mg/kg orally) worked out at 35.7%.
As for `CCC=Cc1nc(CCOc2ccc3c(c2)CN(Cc2ccccc2)[C@H](C(=O)O)C3)c(C)o1` [Example 62, 2-Benzyl-7-{2-[2-(1-butenyl)-5-methyloxazol-4-yl]ethoxy}-1,2,3,4-tetrahydroisoguinoline-(3S)-carboxylic acid], the “Triglyceride accumulation (%)” value in the test with 3T3-L1 cells amounted to 327.8%.
For the molecule `CC(C)=Cc1nc(CCOc2ccc3c(c2)CN(Cc2ccccc2)[C@H](C(=O)O)C3)c(C)o1` [Example 36, 2-Benzyl-7-{2-[5-methyl-2-(2-methylpropenyl)oxazol-4-yl]ethoxy}-1,2,3,4-tetrahydroisoquinoline-(3S)-carboxylic acid], in the test on male KK-A^y mice [1] (dose 30 mg/kg orally), the “Decrease (%) in plasma glucose level” value is recorded as 28.4%. Besides, in the test with male KK-A^y mice [3] (dose 30 mg/kg orally), the “Decrease (%) in plasma triglyceride level” value is on record as 13.7%.
